Data set [1] in a line: Stability in Sprague-Dawley rat hepatocyte after 24 hrs. It counts as ADME, cell-based. Particulars: hepatocytes, read-out: Stability.
For data set [2], the system named is Nakaseomyces glabratus. Put plainly: In vitro potentiation of fluconazole antifungal activity in Candida glabrata YEM19 assessed as 8 fold reduction in fluconazole MIC. It counts as functional.
In data set [3] the test system is Serum. The experiment in a line: Protein binding in Sprague-Dawley rat serum. Also on record: concentration or dose not given beside the values. Type of data set: ADME, cell-free.
For data set [4], the system named is Candida albicans. Put plainly: In vitro potentiation of fluconazole antifungal activity in Candida albicans YEM15 assessed as 8 fold reduction in fluconazole MIC. It counts as functional.
Data set [5] in a line: Total clearance in Sprague-Dawley rat at 5 mg/kg, iv. Type of data set: ADME, organism-based. Also on record: dose 5 mg/kg, route intravenous. Particulars: in vivo.

As for `COc1ccc(N(C(=O)Nc2ccc(F)cc2)C(C)c2nc3ccccc3c(=O)n2N2CCN(C)CC2)c(OC)c1` (configuration not stated), in data set [1], the remaining at 24 h was found to be 18%. Also, the Activity is 4 µg/mL in data set [2], 74% in data set [3] and 4 µg/mL in data set [4].

Consider `CNCC(=O)N1CCN(n2c(C(C)N(C(=O)Nc3ccc(F)cc3)c3ccc(OC)cc3OC)nc3ccccc3c2=O)CC1` (configuration not stated), for which the Activity in data set [2] was 4 µg/mL; in data set [4], >32 µg/mL.

Regarding `COc1ccc(N(C(=O)Nc2ccc(F)cc2)C(C)c2nc3ccccc3c(=O)n2N2CCN(C=O)CC2)c(OC)c1` (configuration not stated), the results for the Activity in data set [2] and in data set [4] were 4 µg/mL and 2 µg/mL, respectively.

As for `COc1ccc(N(C(=O)Nc2ccc(F)cc2)C(C)c2nc3ccccc3c(=O)n2N2CCN(C(=O)[C@H]3CCCN3)CC2)c(OC)c1` (some centres not stated), the results for the Activity in data set [2] and in data set [4] were 2 µg/mL and >32 µg/mL, respectively.

Regarding `COC(=O)N[C@@H]1CCN(C(=O)N2CCN(n3c(C(C)N(C(=O)Nc4ccc(F)cc4)c4ccc(OC)cc4OC)nc4ccccc4c3=O)CC2)C1` (some centres not stated), in data set [1], the remaining at 24 h stood at 4%. Besides, the Activity in data set [2] was determined as 0.5 µg/mL; in data set [4] it was 0.25 µg/mL.

On to `COc1ccc(N(C(=O)Nc2ccc(F)cc2)C(C)c2nc3ccccc3c(=O)n2N2CCNCC2)c(OC)c1` (configuration not stated), for which the Activity in data set [2] is 32 µg/mL; in data set [4], >32 µg/mL.

`COc1ccc(N(C(=O)Nc2ccc(F)cc2)C(C)c2nc3ccccc3c(=O)n2N2CCCCC2)c(OC)c1` (configuration not stated): the Activity in data set [2] and in data set [4] was >32 µg/mL in each case.

In the case of `COC(=O)NCC(=O)N1CCN(n2c(C(C)N(C(=O)Nc3ccc(F)cc3)c3ccc(OC)cc3OC)nc3ccccc3c2=O)CC1` (configuration not stated), the Activity in data set [2] is 2 µg/mL; in data set [4], >32 µg/mL.

As usually defined, the clearance is the volume of plasma or blood freed of the substance per unit of time. `COC(=O)N[C@@H](C)C(=O)N1CCN(n2c([C@H](C)N(C(=O)Nc3ccc(F)cc3)c3ccc(OC)cc3OC)nc3cc(F)ccc3c2=O)CC1`: the Activity in data set [2] was found to be 0.0625 µg/mL; in data set [3] it was 87%; in data set [4], 0.5 µg/mL. In data set [5], the clearance is 125 mL/min/kg.

With `COc1ccc(N(C(=O)Nc2ccc(F)cc2)C(C)c2nc3ccccc3c(=O)n2N2CCN(C(=O)C3CCCC3)CC2)c(OC)c1` (configuration not stated), the values for the Activity in data set [2] and in data set [4] were 0.125 µg/mL and 0.25 µg/mL, respectively.

In the case of `COC(=O)N[C@H](C)C(=O)N1CCN(n2c(C(C)N(C(=O)Nc3ccc(F)cc3)c3ccc(OC)cc3OC)nc3ccccc3c2=O)CC1` (some centres not stated), in data set [1], the remaining at 24 h was 7%. Besides, the Activity in data set [2] came out at 0.5 µg/mL; in data set [3] it was 82%; in data set [4], 4 µg/mL.

In the case of `COc1ccc(N(C(=O)Nc2cccc(Cl)c2)C(C)c2nc3ccccc3c(=O)n2N2CCN(C)CC2)c(OC)c1` (configuration not stated), the results for the Activity in data set [2], in data set [3] and in data set [4] were 4 µg/mL, 98% and 1 µg/mL, respectively. For the same compound, in data set [5], the clearance was 83.3 mL/min/kg.

For the compound `COc1ccc(N(C(=O)Nc2ccc(F)cc2)C(C)c2nc3ccccc3c(=O)n2N2CCN(C(=O)[C@@H]3CCCN3)CC2)c(OC)c1` (some centres not stated), the remaining at 24 h in data set [1] was 77%. Also, the Activity in data set [2] is 4 µg/mL; in data set [3], 77%; in data set [4], >32 µg/mL.

With `COc1ccc(N(C(=O)Nc2ccc(F)cc2)C(C)c2nc3ccccc3c(=O)n2N2CCN(C(=O)C3CCCO3)CC2)c(OC)c1` (configuration not stated), the Activity in data set [2] amounted to 0.125 µg/mL; in data set [4] it was 0.5 µg/mL.

As to `COc1ccc(N(C(=O)Nc2ccc(F)cc2)C(C)c2nc3ccccc3c(=O)n2N2CCN(C(=O)[C@@H]3CCCN3C)CC2)c(OC)c1` (some centres not stated), the Activity in data set [2] worked out at 2 µg/mL; in data set [4] it was 32 µg/mL.

Consider `COc1ccc(N(C(=O)Nc2ccc(F)cc2)C(C)c2nc3ccccc3c(=O)n2N2CCN(C(=O)N3CCCC3)CC2)c(OC)c1` (configuration not stated), for which, in data set [1], the remaining at 24 h amounted to 0%. The Activity is <0.03 µg/mL in data set [2] and 0.0625 µg/mL in data set [4].

Turning to `COC(=O)N(C)[C@@H](C)C(=O)N1CCN(n2c(C(C)N(C(=O)Nc3ccc(F)cc3)c3ccc(OC)cc3OC)nc3ccccc3c2=O)CC1` (some centres not stated), the Activity in data set [2] and in data set [4] was 0.5 µg/mL throughout.

With `COC(=O)N[C@@H](C)C(=O)N1CCN(n2c(C(C)N(C(=O)Nc3ccc(F)cc3)c3ccc(OC)cc3OC)nc3ccccc3c2=O)CC1` (some centres not stated), the remaining at 24 h in data set [1] came out at 39%. The Activity was 0.25 µg/mL in data set [2], 82% in data set [3] and 2 µg/mL in data set [4].

For the compound `COC(=O)N[C@@H](CO)C(=O)N1CCN(n2c(C(C)N(C(=O)Nc3ccc(F)cc3)c3ccc(OC)cc3OC)nc3ccccc3c2=O)CC1` (some centres not stated), the results for the Activity in data set [2] and in data set [4] were 8 µg/mL and 32 µg/mL, respectively.

For `COC(=O)N[C@H](C(=O)N1CCN(n2c(C(C)N(C(=O)Nc3ccc(F)cc3)c3ccc(OC)cc3OC)nc3ccccc3c2=O)CC1)[C@H](C)O` (some centres not stated), the Activity in data set [2] and in data set [4] was 2 µg/mL throughout.

In the case of `COc1ccc(N(C(=O)Nc2ccc(F)cc2)C(C)c2nc3ccccc3c(=O)n2N2CCN(C[C@@H]3CCCN3)CC2)c(OC)c1` (some centres not stated), the Activity in data set [2] turned out to be 2 µg/mL; in data set [4] it was 32 µg/mL.

With `COC(=O)N[C@H]1CCN(C(=O)N2CCN(n3c(C(C)N(C(=O)Nc4ccc(F)cc4)c4ccc(OC)cc4OC)nc4ccccc4c3=O)CC2)C1` (some centres not stated), the remaining at 24 h in data set [1] was 23%. Further, the Activity in data set [2] was determined as 0.25 µg/mL; in data set [4], 4 µg/mL.

In the case of `CCOC(=O)N1CCN(n2c(C(C)N(C(=O)Nc3ccc(F)cc3)c3ccc(OC)cc3OC)nc3ccccc3c2=O)CC1` (configuration not stated), the Activity in data set [2] came to 0.5 µg/mL; in data set [4], 0.25 µg/mL.

As for `CCNC(=O)N1CCN(n2c(C(C)N(C(=O)Nc3ccc(F)cc3)c3ccc(OC)cc3OC)nc3ccccc3c2=O)CC1` (configuration not stated), the Activity in data set [2] and in data set [4] was 1 µg/mL throughout.

As to `COc1ccc(N(C(=O)Nc2ccc(F)cc2)C(C)c2nc3ccccc3c(=O)n2N2CCN(C(N)=O)CC2)c(OC)c1` (configuration not stated), the Activity in data set [2] was found to be 16 µg/mL; in data set [4], 8 µg/mL.

With `COc1ccc(N(C(=O)Nc2ccc(F)cc2)C(C)c2nc3ccccc3c(=O)n2N2CCN(C(=O)[C@@H]3CCCN3C3CC3)CC2)c(OC)c1` (some centres not stated), the Activity in data set [2] is 0.25 µg/mL; in data set [4], 1 µg/mL.

`COc1ccc(N(C(=O)Nc2ccc(F)cc2)C(C)c2nc3ccccc3c(=O)n2N2CCN(C(=O)[C@H](C)N3CCCC3)CC2)c(OC)c1` (some centres not stated): the Activity in data set [2] is 0.25 µg/mL; in data set [4], 8 µg/mL.

As to `COc1ccc(N(C(=O)Nc2ccc(F)cc2)C(C)c2nc3ccccc3c(=O)n2N2CCN(C(=O)CN3CCCC3)CC2)c(OC)c1` (configuration not stated), the Activity in data set [2] was determined as 1 µg/mL; in data set [4], 4 µg/mL.

Consider `COc1ccc(N(C(=O)Nc2ccc(F)cc2)C(C)c2nc3ccccc3c(=O)n2N2CCN(C(=O)C[C@@H]3CCCN3)CC2)c(OC)c1` (some centres not stated), for which the Activity in data set [2] was 0.5 µg/mL; in data set [4], >32 µg/mL.

Consider `COC(=O)N[C@H](C(=O)N1CCN(n2c(C(C)N(C(=O)Nc3ccc(F)cc3)c3ccc(OC)cc3OC)nc3ccccc3c2=O)CC1)C(C)C` (some centres not stated), for which the figures for the Activity in data set [2] and in data set [4] were 2 µg/mL and 1 µg/mL, respectively.

As to `COc1ccc(N(C(=O)Nc2ccc(F)cc2)C(C)c2nc3ccccc3c(=O)n2N2CCN(C(=O)[C@H](C)N)CC2)c(OC)c1` (some centres not stated), the Activity was 4 µg/mL in data set [2] and >32 µg/mL in data set [4].
